Values of other authors in article PMC3057427 (ACS combinatorial science, 2011).

SMILES | efficacy in anti-Parkinsonian animal models
O=C(Nc1cc(Cl)cc(Cl)c1)[C@H]1CCCC[C@H]1C(=O)O [Compound 2] | display efficacy
COc1cc(NC(=O)c2ccccn2)ccc1Cl [Compound 6] | display efficacy
